Assays:
PANC-1 [1] = assay: Cell cycle arrest in human PANC1 cells assessed as accumulation at G1 phase at 100 nM after 24 hrs by flow cytometry; type: functional
PANC-1 [2] = assay: Cell cycle arrest in human PANC1 cells assessed as accumulation at G2/M phase at 100 nM after 24 hrs by flow cytometry; type: functional
PANC-1 [3] = assay: Cell cycle arrest in human PANC1 cells assessed as accumulation at S phase at 100 nM after 24 hrs by flow cytometry; type: functional
[4] = Growth inhibition of paclitaxel-resistant human NCI/ADR cells after 72 hrs by MTT assay; type: functional, cell-based; settings: NCI/ADR-RES
PANC-1 [5] = assay: Growth inhibition of human PANC1 cells after 72 hrs by MTT assay; type: functional, cell-based; settings: PANC-1, 72 h
ASPC1 = assay: Growth inhibition of human AsPC1 cells after 72 hrs by MTT assay; type: functional, cell-based; settings: ASPC1, 72 h
DLD-1 = assay: Growth inhibition of human DLD1 cells after 72 hrs by MTT assay; type: functional, cell-based; settings: DLD-1, 72 h

SMILES	Activity (PANC-1 [1]) [%]	Activity (PANC-1 [2]) [%]	Activity (PANC-1 [3]) [%]	IC50 [4] [nM]	IC50 (PANC-1 [5]) [nM]	IC50 (ASPC1) [nM]	IC50 (DLD-1) [nM]
C=C/C=C\[C@H](C)[C@@H]1OC(=O)CCCC[C@@H](C)[C@@H](O)C[C@H](O)/C=C\[C@H](C)[C@H](O)[C@@H](C)C[C@@H](C)CC[C@@H](O)[C@@H]1C	6	84	9	–	–	–	–
C=C/C=C\[C@H](C)[C@H](O)[C@@H](C)[C@H]1CC[C@H](C)C[C@H](C)[C@@H](O)[C@@H](C)/C=C\[C@@H](O)C[C@H](O)[C@H](C)CCCCC(=O)O1	–	–	–	3100	3200	4900	1500
C=C/C=C\[C@H](C)[C@@H]1OC(=O)CC/C=C/[C@@H](C)[C@@H](O)C[C@H](O)/C=C\[C@H](C)[C@H](O)[C@@H](C)C[C@@H](C)CC[C@@H](O)[C@@H]1C	9	75	17	–	–	–	–
C=C/C=C\[C@H](C)[C@H](O)[C@@H](C)[C@H]1CC[C@H](C)C[C@H](C)[C@@H](O)[C@@H](C)/C=C\[C@@H](O)C[C@H](O)[C@H](C)/C=C/CCC(=O)O1	–	–	–	1600	1300	3100	930
C=C/C=C\[C@H](C)[C@@H]1OC(=O)/C=C\C=C\C[C@@H](O)C[C@H](O)/C=C\[C@H](C)[C@H](O)[C@@H](C)C[C@@H](C)CC[C@@H](O)[C@@H]1C	8	76	17	–	–	–	–
C=C/C=C\[C@H](C)[C@@H]1OC(=O)/C=C\C=C\[C@@H](C)[C@@H](O)C[C@H](O)/C=C\[C@H](C)[C@H](O)[C@@H](C)CCCC[C@@H](O)[C@@H]1C	–	–	–	1500	–	–	–
C=C/C=C\[C@H](C)[C@@H]1OC(=O)/C=C\C=C\[C@@H](C)[C@@H](O)C[C@H](O)/C=C\[C@H](C)[C@H](O)[C@@H](C)C[C@@H](C)CC[C@@H](O)[C@@H]1C [DICTYOSTATIN]	4.2	82	14	–	–	–	–
